From patent US9561212B2, “Hepatitis C virus inhibitors” (BRISTOL-MYERS SQUIBB COMPANY, priority 2012, dated 2017) come the findings set out here.

For the first test, the system named is HCV 1b genotype. Kind of test: microbe, parasite or virus in culture. The format is cell-based, Hepatitis C virus. The conditions noted are these: HCV 1b replicon; read-out: 1b (μM): EC50 (Effective 50% inhibitory concentration) against the HCV 1b genotype. The protocol: An HCV Replicon assay was utilized in the present disclosure, and was prepared, conducted and validated as described in commonly owned PCT/US2006/022197 and in O'Boyle et. al. Antimicrob Agents Chemother. 2005 April; 49(4):1346-53. Assay methods incorporating luciferase reporters have also been used as described (Apath.com).
HCV-neo replicon cells and replicon cells containing resistance substitutions in the NS5A region were used to test the currently described family of compounds.
Take `COC(=O)N[C@@H](C(=O)N1C(c2nc(-c3ccc(-c4ccc(-c5c[nH]c(C6C[C@H]7CC7N6C(=O)[C@H](NC(=O)OC)C6C[C@@H]7[C@H](C6)C7(F)F)n5)cc4)cc3)c[nH]2)C[C@H]2CC21)C1C[C@@H]2[C@H](C1)C2(F)F` (single isomer, unassigned; diastereomer 3) [QC2.3]: the EC50 worked out at 1.08 nM.

The same test, now with this note: HCV 1b replicon; read-out: Range: EC50 ranges against HCV 1b.
Consider `COC(=O)NC(C(=O)N1C[C@@H](C)C[C@H]1c1nc2cc(C#Cc3ccc4c(ccc5nc([C@@H]6C[C@H](C)CN6C(=O)C(NC(=O)OC)C6CCOC7(CC7)C6)[nH]c54)c3)ccc2[nH]1)C1CCOC2(CC2)C1` (some centres unmarked) [QC9], for which the EC50 was 0.00501 to 0.1 nM.

Take `COC(=O)NC(C(=O)N1[C@@H](C)CC[C@H]1c1ncc(-c2ccc(-c3ccc(-c4cnc([C@@H]5CC[C@H](C)N5C(=O)C(NC(=O)OC)C5CCOC6(CCC6)C5)[nH]4)cc3)cc2)[nH]1)C1CCOC2(CCC2)C1` (single isomer, unassigned) [Example 2.2]: the EC50 fell in the range of 0.9 to 700 nM.

On to `COC(=O)N[C@@H](C(=O)N1C(c2nc(-c3ccc(-c4ccc(-c5c[nH]c(C6C[C@H]7CC7N6C(=O)[C@H](NC(=O)OC)C6C[C@@H]7[C@H](C6)C7(F)F)n5)cc4)cc3)c[nH]2)C[C@H]2CC21)C1C[C@@H]2[C@H](C1)C2(F)F` (single isomer, unassigned; diastereomer 3) [QC2.3], for which the EC50 lay within 0.9 to 700 nM.

Take `COC(=O)NC(C(=O)N1C(c2nc(-c3ccc(-c4ccc(-c5c[nH]c([C@@H]6CC[C@H](C)N6C(=O)C(NC(=O)OC)C6CCC7(CC7)OC6)n5)cc4)cc3)c[nH]2)CC[C@@H]1C)C1CCC2(CC2)OC1` (some centres unmarked) [Example 1.2]: the EC50 lay within 0.00501 to 0.1 nM.

Take `COC(=O)N[C@@H](C(=O)N1[C@@H]2C[C@@H]2C[C@H]1c1nc(-c2ccc(-c3ccc(-c4c[nH]c([C@@H]5C[C@H]6C[C@H]6N5C(=O)[C@H](NC(=O)OC)[C@H]5C[C@H]6C[C@H]6C5)n4)cc3)cc2)c[nH]1)[C@H]1C[C@H]2C[C@H]2C1` (single isomer, unassigned; diastereomer 3) [QC3.3]: the EC50 was in the range of 0.1 to 0.9 nM.

Take “dimethyl (1H,1′H-7,7′-binaphtho[1,2-d]imidazole-2,2′-diylbis((2S)-2,1-pyrrolidinediyl(1-(4-oxaspiro[2.5]oct-7-yl)-2-oxo-2,1-ethanediyl)))biscarbamate [QC13]”: the EC50 lay in the range of 0.00501 to 0.1 nM.

Regarding `COC(=O)NC(C(=O)N1[C@@H]2C[C@@H]2C[C@H]1c1nc(-c2ccc(-c3ccc(-c4c[nH]c([C@@H]5C[C@H]6C[C@H]6N5C(=O)C(NC(=O)OC)C5[C@H]6COC[C@@H]56)n4)cc3)cc2)c[nH]1)C1[C@H]2COC[C@@H]12` (single isomer, unassigned; diastereomer 2) [QC4.2], the EC50 fell in the range of 0.1 to 0.9 nM.

The same test, now with this note: Hepatitis C virus, HCV 1b replicon; read-out: 1b (μM): EC50 (Effective 50% inhibitory concentration) against the HCV 1b genotype.
For the molecule `COC(=O)NC(C(=O)N1CCC[C@H]1c1nc2cc(-c3ccc4c(ccc5nc([C@@H]6CCCN6C(=O)C(NC(=O)OC)C6CCOC7(CC7)C6)[nH]c54)c3)ccc2[nH]1)C1CCOC2(CC2)C1` (stereo partly drawn) [QC10, methyl (2-((2S)-2-(7-(2-((2S)-1-(((methoxycarbonyl)amino)(4-oxaspiro[2.5]oct-7-yl)acetyl)-2-pyrrolidinyl)-1H-benzimidazol-5-yl)-1H-naphtho[1,2-d]imidazol-2-yl)-1-pyrrolidinyl)-1-(4-oxaspiro[2.5]oct-7-yl)-2-oxoethyl)carbamate], the EC50 was 0.259 nM.

In the case of `C=C1CC(C(NC(=O)OC)C(=O)N2[C@@H](C)CC[C@H]2c2ncc(-c3ccc(-c4ccc(-c5cnc([C@@H]6CC[C@H](C)N6C(=O)C(NC(=O)OC)C6CC(=C)C6)[nH]5)cc4)cc3)[nH]2)C1` (some centres unmarked) [Example 4.2], the EC50 is 0.243 nM.

The test is the same for the next values; noted with them: Hepatitis C virus, HCV 1b replicon; read-out: Range: EC50 ranges against HCV 1b.
For the molecule `COC(=O)N[C@H](C(=O)N1[C@@H](C)CC[C@H]1c1ncc(-c2ccc(-c3ccc(-c4cnc([C@@H]5CC[C@H](C)N5C(=O)[C@@H](NC(=O)OC)[C@@H]5CCO[C@H](C6CC6)C5)[nH]4)cc3)cc2)[nH]1)[C@@H]1CCO[C@H](C2CC2)C1` [Example 7], the EC50 fell in the range of 0.00501 to 0.1 nM.

Consider `COC(=O)N[C@H](C(=O)N1C(CO)CCC1c1ncc(-c2ccc(-c3ccc(-c4cnc(C5CCC(CO)N5C(=O)[C@@H](NC(=O)OC)C5C[C@@H](C)O[C@H](C)C5)[nH]4)cc3)cc2)[nH]1)C1C[C@@H](C)O[C@H](C)C1` (single isomer, unassigned) [Example 11.1], for which the EC50 was in the range of 0.9 to 700 nM.

Regarding `COC(=O)NC(C(=O)N1CCC[C@H]1c1nc2cc(-c3ccc4c(ccc5nc([C@@H]6CCCN6C(=O)C(NC(=O)OC)C6CCOC7(CC7)C6)[nH]c54)c3)ccc2[nH]1)C1CCOC2(CC2)C1` (stereo partly drawn) [QC10, methyl (2-((2S)-2-(7-(2-((2S)-1-(((methoxycarbonyl)amino)(4-oxaspiro[2.5]oct-7-yl)acetyl)-2-pyrrolidinyl)-1H-benzimidazol-5-yl)-1H-naphtho[1,2-d]imidazol-2-yl)-1-pyrrolidinyl)-1-(4-oxaspiro[2.5]oct-7-yl)-2-oxoethyl)carbamate], the EC50 fell in the range of 0.1 to 0.9 nM.

With `C#C[C@H]1CC[C@@H](c2ncc(-c3ccc(-c4ccc(-c5cnc([C@@H]6CC[C@H](C#C)N6C(=O)[C@@H](NC(=O)OC)C6C[C@@H](C)O[C@H](C)C6)[nH]5)cc4)cc3)[nH]2)N1C(=O)[C@@H](NC(=O)OC)C1C[C@@H](C)O[C@H](C)C1` (stereo partly drawn) [Example 10, dimethyl (4,4′-biphenyldiylbis(1H-imidazole-5,2-diyl((2S,5R)-5-ethynyl-2,1-pyrrolidinediyl)((1S)-1-((2R,6R)-2,6-dimethyltetrahydro-2H-pyran-4-yl)-2-oxo-2,1-ethanediyl)))biscarbamate], the EC50 lay in the range of 0.00501 to 0.1 nM.

On to `COC(=O)N[C@H](C(=O)N1CC2(CCCC2)C[C@H]1c1nc(-c2ccc(-c3ccc(-c4c[nH]c([C@@H]5CC6(CCCC6)CN5C(=O)[C@@H](NC(=O)OC)C5C[C@@H](C)O[C@H](C)C5)n4)cc3)cc2)c[nH]1)C1C[C@@H](C)O[C@H](C)C1` (stereo partly drawn) [Example JLR-1.0, dimethyl (4,4′-biphenyldiylbis(1H-imidazole-4,2-diyl(3S)-2-azaspiro[4.4]nonane-3,2-diyl((1S)-1-((2R,6R)-2,6-dimethyltetrahydro-2H-pyran-4-yl)-2-oxo-2,1-ethanediyl)))biscarbamate], for which the EC50 lay within 0.00501 to 0.1 nM.

Consider `COC(=O)N[C@H](C(=O)N1[C@@H](C)CC[C@H]1c1nc(-c2ccc(-c3ccc(-c4c[nH]c([C@@H]5CC[C@H](C)N5C(=O)[C@@H](NC(=O)OC)C56CC(C(F)(F)F)(C5)C6)n4)cc3)cc2)c[nH]1)C12CC(C(F)(F)F)(C1)C2` [OL12, dimethyl (4,4′-biphenyldiylbis(1H-imidazole-4,2-diyl((2S,5S)-5-methyl-2,1-pyrrolidinediyl)((1S)-2-oxo-1-(3-(trifluoromethyl)bicyclo [1.1.1]pent-1-yl)-2,1-ethanediyl)))biscarbamate], for which the EC50 lay within 0.1 to 0.9 nM.

As for `COC(=O)NC(C(=O)N(C)[C@@H](C)c1nc2cc(C#Cc3ccc4nc([C@H](C)N(C)C(=O)C(NC(=O)OC)C5CCOC6(CC6)C5)[nH]c4c3)ccc2[nH]1)C1CCOC2(CC2)C1` (stereo partly drawn) [OL2, methyl (2-(((1S)-1-(5-((2-((1S)-1-((((methoxycarbonyl)amino)(4-oxaspiro[2.5]oct-7-yl)acetyl)(methyl)amino)ethyl)-1H-benzimidazol-6-yl)ethynyl)-1H-benzimidazol-2-yl)ethyl)(methyl)amino)-1-(4-oxaspiro[2.5]oct-7-yl)-2-oxoethyl)carbamate], the EC50 fell in the range of 0.00501 to 0.1 nM.

Consider `C=C1CC(C(NC(=O)OC)C(=O)N2[C@@H](C)CC[C@H]2c2ncc(-c3ccc(-c4ccc(-c5cnc([C@@H]6CC[C@H](C)N6C(=O)C(NC(=O)OC)C6CC(=C)C6)[nH]5)cc4)cc3)[nH]2)C1` (some centres unmarked) [Example 4.2], for which the EC50 was 0.1 to 0.9 nM.

On to `COC(=O)N[C@H](C(=O)N1[C@H](c2nc(-c3ccc(-c4ccc(-c5c[nH]c([C@@H]6C[C@@]7(C)C[C@H]7N6C(=O)[C@@H](NC(=O)OC)[C@H]6CCOC7(CC7)C6)n5)cc4)cc3)c[nH]2)C[C@@]2(C)C[C@@H]12)[C@H]1CCOC2(CC2)C1` [QC19, dimethyl (4,4′-biphenyldiylbis(1H-imidazole-4,2-diyl((1R,3S,5R)-5-methyl-2-azabicyclo[3.1.0]hexane-3,2-diyl)(1-(4-oxaspiro[2.5]oct-7-yl)-2-oxo-2,1-ethanediyl)))biscarbamate], for which the EC50 lay in the range of 0.00501 to 0.1 nM.

Still in this test, the particulars now being: read-out: Range: EC50 ranges against HCV 1b.
For `COC(=O)NC(C(=O)N1C(c2nc(Cl)c(-c3ccc(-c4ccc(-c5[nH]c(C6CC7CC7N6C(=O)C(NC(=O)OC)C6CCOC7(CC7)C6)nc5Cl)cc4)cc3)[nH]2)CC2CC21)C1CCOC2(CC2)C1` [OL5, dimethyl (((1R,1′R,3S,3′S,5R,5′R)-3,3′-(5,5′-([1,1′-biphenyl]-4,4′-diyl)bis(4-chloro-1H-imidazole-5,2-diyl))bis(2-azabicyclo[3.1.0]hexane-3,2-diyl))bis(2-oxo-1-(4-oxaspiro[2.5]octan-7-yl)ethane-2,1-diyl))dicarbamate], the EC50 is 0.00501 to 0.1 nM.
